Assay results published in US20210153502A1, “PLANT GROWTH AID AND PLANT GROWING METHOD” (priority 2018, published 2021).

Columns and labels:
[1] = octanol/water, 25° C.; cited from earlier work
PR1 protein [2] = assay: Evaluation of disease resistance: PR1 protein content of sprayed leaf by western blotting, rice; assay type: in vivo; conditions: seedling sheet Z-1, band density relative to thiazinyl solution of same period
Description: (§1) The results are shown in the rows of “cultivation in paddy field” of Table 3 (rice) and Table 4 (tomato).
(§2) A 1/5000-are pot was filled with 2.9 kg of paddy field soil (clay loam). Ten young seedlings having 2 to 3 leaves grown by the above method were planted in a depth of 2 cm and watered, and the seedlings were placed in water at a depth of 3 cm. The seedlings were left to stand at 25° C. for a predetermined period shown in Table 3 or Table 4 (days (day) from moving to paddy field until evaluation). Each leaf sprayed with the nanoparticle (P) dispersion (or thiazinyl solution) was cut off, immersed in ion exchange water in a container for one minute, and taken out from the container. The liquid in the container was replaced by fresh ion exchange water. The leaf was further subjected to an operation of immersing in the fresh ion exchange water in the container for one minute and taking out of the container three times, whereby the nanoparticles (P) (or thiazinyl) attached to the leaf surface were removed. Then, proteins were extracted from the above leaf using 8-min Plant Tissue Total Protein Extraction Kit (available from Cosmo Bio Co., Ltd.), and the PR1 protein content, which is a marker of disease resistance, in the extracted proteins was determined as follows. The total protein content was quantified with Micro BCATM protein assay kit (available from THERMO Fisher Scientific). […]
(§3) The test was performed five times for each seedling. The PR1 protein content was evaluated by western blotting (including electrophoresis, transferring, and color development) specifically described later. […]
(§4) After a PR1 protein band was detected in the transferring membrane after the operations (1) to (3), the density of the band was quantified with Image J (available from National Institutes of Health, USA). In Examples 11 to 14, the quantified density of the band in each of Examples 11 to 14 was divided by the density of the band in Comparative Example 3. […]

Hinohikari (rice) [3] = assay: Aerial part growing ratio after treatment with nanoparticles (P) or thiazinyl, rice; assay type: in vivo; conditions: seedling sheet Z-1, relative to thiazinyl solution of same period
Description: as §1
(§5) Young seedlings were treated with the nanoparticles (P) or thiazinyl in the same manner as in the method described in the <Evaluation of disease resistance>, and the aerial part growing state was evaluated after a predetermined period (shown in Tables 3 and 4, days (day) from moving to the paddy field until evaluation). Specifically, the aerial part growing state was evaluated by measuring the length of each part. The aerial part length in each example treated with the nanoparticles (P) for a predetermined period was divided by the aerial part length in the comparative example treated with a thiazinyl solution for the same period. The calculated value was regarded as the aerial part growing ratio.

PR1 protein [4] = assay: Evaluation of disease resistance: PR1 protein content of sprayed leaf by western blotting, tomato; assay type: in vivo; conditions: seedling sheet Z-1, band density relative to thiazinyl solution of same period
Description: as §1, §2, §3, §4

House Momotaro (tomato) [5] = assay: Aerial part growing ratio after treatment with nanoparticles (P) or thiazinyl, tomato; assay type: in vivo; conditions: seedling sheet Z-1, relative to thiazinyl solution of same period
Description: as §1, §5

House Momotaro (tomato) [6] = assay: Evaluation of crop injury after treatment with nanoparticles (P) or thiazinyl, tomato; assay type: in vivo; design: key: 0: Harmless (healthy); 1: minimally damaged; 2: slightly damaged; 3: moderately damaged; 4: significantly damaged; 5: complete leaf firing; conditions: seedling sheet Z-1, 100 μL spray, thiazinyl 100 ppm
Description: as §1
(§6) Young seedlings were treated with the nanoparticles (P) or thiazinyl in the same manner as in the method described in <Evaluation of disease resistance>. Then, the degree of crop injury on the leaf surface was evaluated after a predetermined period of time (days (day) shown in Tables 3 and 4, from moving to the paddy field until evaluation). Specifically, crop injury was visually evaluated with the naked eye according to the following criteria.

Hinohikari (rice) [7] = assay: Evaluation of crop injury after treatment with nanoparticles (P) or thiazinyl, rice; assay type: in vivo; design: key: 0: Harmless (healthy); 1: minimally damaged; 2: slightly damaged; 3: moderately damaged; 4: significantly damaged; 5: complete leaf firing; conditions: seedling sheet Z-1, 100 μL spray, thiazinyl 100 ppm
Description: as §1, §6

[8] = 1 day from moving to paddy field
[9] = 3 days from moving to paddy field
[10] = 7 days from moving to paddy field

Compound	Log Pow [1]	other results
Cc1c(F)c(F)c(COC(=O)[C@@H]2[C@H](/C=C(\Cl)C(F)(F)F)C2(C)C)c(F)c1F (racemic) [tefluthrin]	6.5	–
N#Cc1c(Cl)c(Cl)c(Cl)c(C#N)c1Cl [TPN, chlorothalonil]	2.92	–
CSC(=O)c1cccc2nnsc12 [acibenzolar-S-methyl]	3.1	–
CC1(C)[C@H](C(=O)O[C@H](C#N)c2cccc(Oc3ccccc3)c2)[C@@H]1/C=C\C(=O)OC(C(F)(F)F)C(F)(F)F [acrinathrin]	5.25	–
O=C1C2CC=CCC2C(=O)N1SC(Cl)(Cl)Cl (centres unmarked) [captan]	2.8	–
CCOP(=S)(OCC)Oc1cc(C)nc(C(C)C)n1 [diazinon]	3.3	–
CCOc1ccc(NC(=O)OC(C)C)cc1OCC [diethofencarb]	3.02	–
N#CC(CCc1ccc(Cl)cc1)(Cn1cncn1)c1ccccc1 (centres unmarked) [fenbuconazole]	3.23	–
COP(=S)(OC)Oc1ccc([N+](=O)[O-])c(C)c1 [fenitrothion]	3.43	–
C/C(=N/Nc1nc(C)cc(C)n1)c1ccccc1C [ferimzone]	2.89	–
O=C(NC(=O)c1c(F)cccc1F)Nc1ccc(Cl)c(Oc2ncc(C(F)(F)F)cc2Cl)c1 [fluazuron]	5.1	–
O=[N+]([O-])c1ccc(NS(=O)(=O)c2ccc(Cl)c(C(F)(F)F)c2)c(Cl)c1 [flusulfamide]	2.8	–
CC(C)Oc1cccc(NC(=O)c2ccccc2C(F)(F)F)c1 [flutolanil]	3.17	–
CC(C)[C@H](Nc1ccc(C(F)(F)F)cc1Cl)C(=O)OC(C#N)c1cccc(Oc2ccccc2)c1 (some centres unmarked) [fluvalinate]	2.9	–
CCOP(=O)(SC(C)CC)N1CCSC1=O (centres unmarked) [fosthiazate]	1.68	–
O=C1OCc2c(Cl)c(Cl)c(Cl)c(Cl)c21 [fthalide]	3.01	–

Compound	Log Pow [1]	other results
Cc1nn(C)c(Cl)c1C(=O)Nc1cccc2c1C(C)OC2(C)C (centres unmarked) [furametpyr]	2.36	–
O=C(NC(=O)c1c(F)cccc1F)Nc1cc(Cl)c(OC(F)(F)C(F)F)c(Cl)c1 [hexaflumuron]	4.68	–
CC(C)OP(=O)(OC(C)C)SCc1ccccc1 [iprobenfos]	3.37	–
N#Cc1ccccc1NC(=O)c1snc(Cl)c1Cl [isotianil]	2.96	–
O=C(NC(=O)c1c(F)cccc1F)Nc1cc(Cl)c(OC(F)(F)C(F)C(F)(F)F)cc1Cl (centres unmarked) [lufenuron]	5.12	–
COCC(=O)N(c1c(C)cccc1C)C(C)C(=O)OC (centres unmarked) [metalaxyl]	1.75	–
COc1nn(CSP(=S)(OC)OC)c(=O)s1 [methidathion]	2.2	–
CCCCC(C#N)(Cn1cncn1)c1ccc(Cl)cc1 (centres unmarked) [myclobutanil]	2.9	–
C=CCCCOC(=O)C(CC)N(Cc1ccco1)C(=O)n1ccnc1 (centres unmarked) [pefurazoate]	3.0	–
CCCSP(=O)(OCC)Oc1cnn(-c2ccc(Cl)cc2)c1 (centres unmarked) [pyraclofos]	3.77	–
O=C1CCc2cccc3c2N1CC3 [pyroquilone]	1.42	–
Cc1ccc(NC(=O)c2snnc2C)cc1Cl [thiazinyl]	3.68	PR1 protein mass ratio (PR1 protein [2]; 1 day): 1.0; PR1 protein mass ratio (PR1 protein [2]; 3 days): 1.0; PR1 protein mass ratio (PR1 protein [2]; 7 days): 1.0; Aerial part growth ratio (Hinohikari (rice) [3]; 1 day): 1.0; Aerial part growth ratio (Hinohikari (rice) [3]; 3 days): 1.0; Aerial part growth ratio (Hinohikari (rice) [3]; 7 days): 1.0; PR1 protein mass ratio (PR1 protein [4]; 1 day): 1.0; PR1 protein mass ratio (PR1 protein [4]; 3 days): 1.0; PR1 protein mass ratio (PR1 protein [4]; 7 days): 1.0; Aerial part growth ratio (House Momotaro (tomato) [5]; 1 day): 1.0; Aerial part growth ratio (House Momotaro (tomato) [5]; 3 days): 1.0; Aerial part growth ratio (House Momotaro (tomato) [5]; 7 days): 1.0; Crop injury (House Momotaro (tomato) [6]; [8]): 2; Crop injury (House Momotaro (tomato) [6]; [9]): 3; Crop injury (House Momotaro (tomato) [6]; [10]): 3; Crop injury (Hinohikari (rice) [7]; [8]): 3; Crop injury (Hinohikari (rice) [7]; [9]): 4; Crop injury (Hinohikari (rice) [7]; [10]): 4
COC(=O)c1c(C(F)F)nc(C(F)(F)F)c(C2=NCCS2)c1CC(C)C [thiazopyr]	3.89	–
CS/C(C)=N\OC(=O)N(C)SN(C)C(=O)O/N=C(\C)SC [thiodicarb]	1.62	–
COC(=O)NC(=S)Nc1ccccc1NC(=S)NC(=O)OC [thiophanate-methyl]	1.5	–
CN(C)C(=S)SSC(=S)N(C)C [thiuram]	1.73	–
